Experimental data published in patent publication US20180015100A1, “COMBINATION PRODUCTS FOR THE TREATMENT OF BACTERIAL INFECTIONS AND METHODS OF PRODUCING OR DOSING OF SAME” (priority 2016, published 2018).
In brackets after ≈: the same amount, converted by molar mass. Blank lines part the entries; values can stand above or below the compound they belong to.

Tests used:
[1] = system: Escherichia coli isolates with an ESBL-phenotype; experiment: In vitro MIC90 of a panel of approved antibiotics, US surveillance program; format: cell-based; details: for MIC90: Escherichia coli, E. coli (n = 124), ESBL-phenotype, read-out: MIC90
[2] = system: 385 Escherichia coli and 126 Klebsiella pneumoniae isolates; experiment: MIC, MIC50 and MIC90 by reference broth microdilution against 511 UTI/bloodstream isolates (USA and Europe 2014-2015); format: cell-based; details: 511 isolates; for EUCAST % I: EUCAST 2016 criteria; for MIC90: read-out: MIC90
[3] = system: Citrobacter freundii isolates; experiment: MIC of cephalosporins alone or with clavulanate/tazobactam; format: cell-based; details: clavulanate 2:1, tazobactam 4 μg/mL
clinical = details: human, in vivo, po, 125 mg
Experimental: The twice daily divided dose of study drug was administered approximately 12 hours apart. All subjects randomized to placebo received placebo oral capsules that were identical to study drug capsules and given according to the same dosing schedule and same quantity of capsules as subjects randomized to receive ceftibuten and clavulanate concurrently. All SDs, as well as the first daily dose of the MD period on […] were given while the subject was fasted. […] In addition, blood samples for assessment of trough (pre-dose) concentrations were collected on day 7, day 8, day 9, and alternate days thereafter through study day 17. […] Peak concentration (Cmax), time at which Cmax was observed (Tmax), area under the concentration-time curve to infinity (AUCinf), percent coefficient of variation (% CV), elimination half-life (T1/2), apparent total clearance of the drug from plasma after oral administration (CL/F), and apparent volume of distribution during terminal phase after non-intravenous administration (Vz/F) were determined. […] Similar to above, six subjects were randomized to receive active drug and two were randomized to receive placebo. […] Safety, tolerability and PK were assessed as described above.

[4] = system: beta-lactamase producing E. coli (CTX-M-55; CTX-M-15, TEM-OSBL); experiment: microbe, parasite or virus in culture; format: cell-based; details: Escherichia coli
[5] = system: Klebsiella oxytoca isolates; experiment: MIC of cephalosporins alone or with clavulanate/tazobactam; format: cell-based; details: clavulanate 2:1, tazobactam 4 μg/mL
[6] = system: Escherichia coli isolates; experiment: as above; format: cell-based; details: clavulanate 2:1, tazobactam 4 μg/mL
[7] = system: Enterobacter cloacae isolates; experiment: as above; format: cell-based; details: clavulanate 2:1, tazobactam 4 μg/mL
[8] = plasma; cited from earlier work
[9] = system: Enterobacter aerogenes isolates; experiment: MIC of cephalosporins alone or with clavulanate/tazobactam; format: cell-based; details: Klebsiella aerogenes, clavulanate 2:1, tazobactam 4 μg/mL
[10] = system: Klebsiella pneumoniae isolates; experiment: as above; format: cell-based; details: clavulanate 2:1, tazobactam 4 μg/mL

Structure (SMILES): NCC[C@H](O)C(=O)N[C@@H]1C[C@H](N)[C@@H](O[C@H]2O[C@H](CN)[C@@H](O)[C@H](O)[C@H]2O)[C@H](O)[C@H]1O[C@H]1O[C@H](CO)[C@@H](O)[C@H](N)[C@H]1O [Amikacin]
MIC90 [1]: 8 µg/mL (≈ 13.7 µM)

Structure (SMILES): CC(C)(O/N=C(\C(=O)N[C@@H]1C(=O)N2C(C(=O)[O-])=C(C[n+]3ccccc3)CS[C@H]12)c1csc(N)n1)C(=O)O [Ceftazidime]
MIC90 [1]: > 32 µg/mL | MIC50 [2]: 16 µg/mL (≈ 29.3 µM) | EUCAST % I [2]: 16.2% | MIC90 [2]: > 32 µg/mL

Structure (SMILES): O=C(O)[C@H]1/C(=C/CO)O[C@@H]2CC(=O)N21 [Clavulanate, clavulanic acid]
MIC ([3]; ACFR1034 (CTX-M-15, TEM-OSBL)): 32 µg/mL | MIC ([3]; ACFR1035 (CTX-M-3, TEM-OSBL)): 32 µg/mL | Tmax (clinical; Tmax): 60 min | half-life (clinical; T½): 46.5 min | MIC [4]: > 32 µg/mL | MIC ([5]; AKOX1005 (SHV-2, TEM-1, DHA-1)): 32 µg/mL | MIC ([5]; AKOX1009 (CTX-M-15)): 32 µg/mL | MIC ([6]; AECO001 (no ESBL)): 32 µg/mL | MIC ([6]; AECO1078 (CTX-M-15)): 32 µg/mL | MIC ([6]; AECO1147 (CTX-M-15)): 32 µg/mL | MIC ([6]; AECO1157 (CTX-M-15, TEM-OSBL)): 32 µg/mL | MIC ([6]; AECO1159 (CTX-M-15)): 32 µg/mL | MIC ([6]; AECO1169 (CTX-M-1, TEM-OSBL)): 32 µg/mL | MIC ([6]; AECO1172 (CTX-M-14)): 32 µg/mL | MIC ([7]; AECL1065 (CTX-M-15)): 64 µg/mL | MIC ([7]; AECL1067 (CTX-M-3)): 64 µg/mL | Elimination half-life [8]: approximately 1 h | MIC ([9]; AEAE1027 (CTX-M-14)): 32 µg/mL | MIC ([9]; AEAE1029 (CTX-M-15)): 32 µg/mL | MIC ([10]; AKPN1159 (SHV-12)): 32 µg/mL | MIC ([10]; AKPN1161 (SHV-7)): 16 µg/mL | MIC ([10]; AKPN1162 (CTX-M-15, SHV-12)): 32 µg/mL | MIC ([10]; AKPN1166 (CTX-M-14, SHV-12)): 32 µg/mL | MIC ([10]; AKPN1167 (SHV-2)): 16 µg/mL

Structure (SMILES): C[C@H]1COc2c(N3CCN(C)CC3)c(F)cc3c(=O)c(C(=O)O)cn1c23 [Levofloxacin]
MIC90 [1]: > 4 µg/mL

The next lines start with results.

MIC90 [1]: > 16 µg/mL | MIC50 [2]: > 16 µg/mL | MIC90 [2]: > 16 µg/mL
Structure (SMILES): C[C@H]1[C@H](NC(=O)/C(=N\OC(C)(C)C(=O)O)c2csc(N)n2)C(=O)N1S(=O)(=O)O [Aztreonam]
EUCAST % I [2]: 13.9%

MIC90 relative to CLSI/EUCAST breakpoint for susceptibility ([1]; E. coli isolates with ESBL-producing phenotype): above the breakpoint for susceptibility | MIC90 [1]: > 8 µg/mL | MIC50 [2]: > 8 µg/mL | MIC90 [2]: > 8 µg/mL
Structure (SMILES): CO/N=C(\C(=O)N[C@@H]1C(=O)N2C(C(=O)O)=C(CSc3nc(=O)c(=O)[nH]n3C)CS[C@H]12)c1csc(N)n1 [Ceftriaxone]
EUCAST % I [2]: 1.2%

MIC90 [1]: ≤ 0.06 µg/mL
Structure (SMILES): C[C@@H](O)[C@H]1C(=O)N2C(C(=O)O)=C(S[C@@H]3CN[C@H](CNS(N)(=O)=O)C3)[C@H](C)[C@H]12 [Doripenem]

MIC90 [1]: 0.25 µg/mL (≈ 0.835 µM) | MIC50 [2]: ≤ 0.12 µg/mL | MIC90 [2]: 0.5 µg/mL (≈ 1.67 µM)
Structure (SMILES): C[C@@H](O)[C@H]1C(=O)N2C(C(=O)O)=C(SCCN=CN)C[C@H]12 [Imipenem]
EUCAST % I [2]: 2.7%
